Converted amounts (≈) assume the structure as drawn.
Assays:
[1] = Stability of compound in phosphate buffer at pH 6.5; format: physicochemical
[2] = Stability of compound in 0.1 N aqueous HCl buffer at pH 1; format: physicochemical
[3] = Stability of compound in acetate buffer at pH 4; format: physicochemical
[4] = Half life in phosphate buffer at pH 6.5; format: physicochemical; details: for half-life: phosphate buffer; for t1/2: buffer
[5] = Total AUC in Sprague-Dawley rat assessed as ratio of atazanavir to parent level at 3 mg/kg equiv of atazanavir administered orally; format: ADME, organism-based; details: in vivo, po
[6] = Solubility of compound in 0.1 N aqueous HCl buffer at pH 1; format: physicochemical
[7] = Relative oral bioavailability in Sprague-Dawley rat assessed as atazanavir level at 3 mg/kg equiv of atazanavir; format: ADME, organism-based; details: in vivo
[8] = Tmax in Sprague-Dawley rat assessed as atazanavir level at 3 mg/kg equiv of atazanavir administered orally; format: ADME, organism-based; details: in vivo, po
[9] = Half life in 0.1 N aqueous HCl buffer at pH 1; format: physicochemical; details: for half-life: 0.1 N aqueous HCl buffer
[10] = Solubility of compound in phosphate buffer at pH 6.5; format: physicochemical
[11] = Solubility of compound in acetate buffer at pH 4; format: physicochemical
[12] = Cmax in Sprague-Dawley rat assessed as atazanavir level at 3 mg/kg equiv of atazanavir administered orally; format: ADME, organism-based; parameters: route oral, dose 3 mg/kg(equiv); details: in vivo, po
[13] = Half life in acetate buffer at pH 4; format: physicochemical; details: for half-life: acetate buffer; for t1/2: buffer
[14] = AUClast in Sprague-Dawley rat assessed as atazanavir level at 3 mg/kg equiv of atazanavir administered orally; format: ADME, organism-based; parameters: route oral, time 0 - last, dose 3 mg/kg(equiv); details: in vivo, po
[15] = Trough plasma concentration in Sprague-Dawley rat assessed as atazanavir level at 3 mg/kg equiv of atazanavir administered orally measured after 24 hrs; format: ADME, organism-based; details: in vivo, po; for concentration: read-out: Cmin; for Cmin: BLD = below limit of detection
[16] = Ratio of AUClast in Sprague-Dawley rat assessed as atazanavir to parent level at 3 mg/kg equiv of atazanavir administered orally; format: ADME, organism-based; details: in vivo, po
[17] = Solubility of compound in fasted state simulated intestinal fluid; format: physicochemical; details: simulated gi fluid
[18] = Half life in rat plasma measured after 60 mins; format: ADME, cell-free
[19] = Half life in rat hepatocytes measured after 120 mins; format: ADME, cell-based, Hepatocyte
[20] = Stability in rat plasma measured after 60 mins; format: ADME, cell-free; details: 1 h
[21] = Trough plasma concentration in Sprague-Dawley rat at 30 mg/kg, po measured after 24 hrs; format: ADME, organism-based; details: read-out: Cmin
[22] = 0.1 N aqueous HCl buffer, read-out: solubility
[23] = acetate buffer, read-out: solubility

Compound | Ratio AUC [5] | solubility [6, 22] | F [7] | Tmax [8] | half-life [9] | solubility [10] | solubility [11, 23] | Cmax [12] | half-life [13] | AUClast [14] | concentration [15] | Ratio AUC [16] | t1/2 [4] | solubility ([6]; buffer) | further results
COC(=O)N[C@H](C(=O)N[C@@H](Cc1ccccc1)[C@H](CN(Cc1ccc(-c2ccccn2)cc1)NC(=O)[C@@H](NC(=O)OC)C(C)(C)C)OC(=O)OCOC(=O)[C@@H](N)C(C)C)C(C)(C)C |  |  |  |  |  |  |  |  |  |  |  |  |  |  | Stabilty [1]: Unstable; Stabilty [2]: Unstable; Stabilty [3]: Unstable
COC(=O)N[C@H](C(=O)N[C@@H](Cc1ccccc1)[C@H](CN(Cc1ccc(-c2ccccn2)cc1)NC(=O)[C@@H](NC(=O)OC)C(C)(C)C)OC(=O)OCOC(=O)[C@H](C(C)C)N(C)C)C(C)(C)C | 7.7 | > 1200 µg/mL | 46% | 24 min | > 20.8 days | 5 µg/mL (≈ 5.52 µM) | > 450 µg/mL | 573 nM | > 20.8 days | 883 nM·h | 1.9 nM | 2.3 |  |  | half-life [4]: 4.32 days
COC(=O)N[C@H](C(=O)N[C@@H](Cc1ccccc1)[C@H](CN(Cc1ccc(-c2ccccn2)cc1)NC(=O)[C@@H](NC(=O)OC)C(C)(C)C)OC(=O)OCOC(=O)[C@@H](C(C)C)N(C)C)C(C)(C)C | 5.3 | > 1800 µg/mL | 36% | 30 min | > 20.8 days | 6 µg/mL (≈ 6.62 µM) | > 500 µg/mL | 639 nM | 15.7 days | 689 nM·h |  | 2 |  |  | half-life [4]: 2.67 days; Cmin [15]: Bld
COC(=O)N[C@H](C(=O)N[C@@H](Cc1ccccc1)[C@H](CN(Cc1ccc(-c2ccccn2)cc1)NC(=O)[C@@H](NC(=O)OC)C(C)(C)C)OC(=O)OCOC(=O)[C@@H](N)Cc1ccccc1)C(C)(C)C |  |  |  |  | 0.708 days |  |  |  | 0.688 days |  |  |  |  |  | 
COC(=O)N[C@H](C(=O)N[C@@H](Cc1ccccc1)[C@H](CN(Cc1ccc(-c2ccccn2)cc1)NC(=O)[C@@H](NC(=O)OC)C(C)(C)C)OC(=O)OC(C)OC(=O)[C@@H](N)C(C)C)C(C)(C)C (stereo in doubt; 18) | 2.6 |  | 53% | 48 min | > 20.8 days |  | > 3000 µg/mL | 320 nM | > 20.8 days | 1013 nM·h |  |  | > 10.9 h | > 1200 µg/mL | Cmin [15]: Bld
COC(=O)N[C@H](C(=O)N[C@@H](Cc1ccccc1)[C@H](CN(Cc1ccc(-c2ccccn2)cc1)NC(=O)[C@@H](NC(=O)OC)C(C)(C)C)OC(=O)OC(C)OC(=O)[C@@H](N)C(C)C)C(C)(C)C (stereo in doubt; 20) |  |  |  |  |  |  |  |  |  |  |  |  | 5.3 h | > 3200 µg/mL | solubility ([11]; buffer): > 1800 µg/mL; t1/2 [13]: 13.93 days
COC(=O)N[C@H](C(=O)N[C@@H](Cc1ccccc1)[C@H](CN(Cc1ccc(-c2ccccn2)cc1)NC(=O)[C@@H](NC(=O)OC)C(C)(C)C)OC(=O)OC(C)OC(=O)[C@H](C(C)C)N(C)C)C(C)(C)C (stereo in doubt; 21) | 5.7 | > 1900 µg/mL | 58% | 36 min | > 20.8 days | < 1 µg/mL | > 980 µg/mL | 581 nM | > 20.8 days | 1097 nM·h | 1.9 nM | 1 | > 500 h |  | solubility [17]: 3 µg/mL (≈ 3.26 µM); half-life [18]: 41 min; half-life [19]: 25 min
COC(=O)N[C@H](C(=O)N[C@@H](Cc1ccccc1)[C@H](CN(Cc1ccc(-c2ccccn2)cc1)NC(=O)[C@@H](NC(=O)OC)C(C)(C)C)OC(=O)OC(C)OC(=O)[C@H](C(C)C)N(C)C)C(C)(C)C (stereo in doubt; 22) | 92.1 |  | 103% | 48 min |  |  |  | 398 nM |  | 1958 nM·h | 16.7 nM | 17 | 214.9 h | > 1800 µg/mL | Stabilty [20]: Stable; solubility [17]: 11 µg/mL (≈ 12 µM); solubility ([11]; buffer): > 490 µg/mL; t1/2 [13]: 13.93 days
COC(=O)N[C@H](C(=O)N[C@@H](Cc1ccccc1)[C@H](CN(Cc1ccc(-c2ccccn2)cc1)NC(=O)[C@@H](NC(=O)OC)C(C)(C)C)OC(=O)OC(C)OC(=O)[C@@H](C(C)C)N(C)C)C(C)(C)C (stereo in doubt; 23) |  | > 1700 µg/mL |  |  | > 20.8 days | < 1 µg/mL | > 600 µg/mL |  | > 20.8 days |  |  |  |  |  | half-life [4]: > 20.8 days
COC(=O)N[C@H](C(=O)N[C@@H](Cc1ccccc1)[C@H](CN(Cc1ccc(-c2ccccn2)cc1)NC(=O)[C@@H](NC(=O)OC)C(C)(C)C)OC(=O)OC(C)OC(=O)[C@@H](C(C)C)N(C)C)C(C)(C)C (stereo in doubt; 24) | 104.8 |  | 91% | 30 min |  |  |  | 324 nM |  | 1737 nM·h | 24 nM | 22 |  | > 2600 µg/mL | t1/2 ([9]; buffer): > 20.8 days; solubility ([11]; buffer): > 540 µg/mL
COC(=O)N[C@H](C(=O)N[C@@H](Cc1ccccc1)[C@@H](O)CN(Cc1ccc(-c2ccccn2)cc1)NC(=O)[C@@H](NC(=O)OC)C(C)(C)C)C(C)(C)C [ATAZANAVIR] |  |  |  |  |  | < 1 µg/mL | < 1 µg/mL |  |  |  |  |  |  |  | concentration at 24 h [21]: 5 nM

Source: ChEMBL document CHEMBL4706615, “(Carbonyl)oxyalkyl linker-based amino acid prodrugs of the HIV-1 protease inhibitor atazanavir that enhance oral bioavailability and plasma trough concentration” (Eur J Med Chem, 2020)
